Assay results published in ChEMBL document CHEMBL1133491, “Synthesis and binding to plant lectins of sulfur-containing analogues of betaGal1,3 alphaGalNAc (T-antigen)” (Bioorg Med Chem Lett, 2000).

Columns and labels:
Erythrina corallodendron = assay: Binding affinity to Erythrina corallodendron lectin was evaluated; format: functional
[1] = Binding affinity to Agglutinin was evaluated; set-up: species or system Arachis hypogaea
[2] = Binding affinity to soybean agglutinin was evaluated; set-up: species or system Glycine max

IC50 (Erythrina corallodendron) [µM] | IC50 [1] [µM] | IC50 [2] [µM] | Compound
1510 | 1950 | 1290 | CC(=O)N[C@@H]1[C@H](Oc2cccc3ccccc23)O[C@@H](CO)[C@@H](O)[C@@H]1O
1150 | 2510 | 1720 | CC(=O)N[C@@H]1[C@H](Oc2ccccc2)O[C@@H](CO)[C@@H](O)[C@@H]1O
